Data published in patent publication US4426519A, “7-(2-Amino-4-thiazolyl)-acetamido cephalosporanic acids” (Roussel Uclaf, priority 1979, dated 1984).
Converted amounts (≈) assume the structure as drawn. Structures can show the parent of a compound that is named as a salt. Where two headings read alike, the source gives them in different places.

Experiments:
Assay in all cases: MIC, dilution in liquid medium
Format in all cases: cell-based
[1] = tested on: Proteus mirabilis (indol-) A 235
Method: (§1) The method used was a dilution of a liquid medium where a series of tubes received the same quantity of a sterile nutritive media and increasing doses of the test compounds were placed therein. Then each tube was seeded with a bacterial strain and was incubated for 24 to 48 hours at 37° C. in an oven. The increasing inhibition was determined by transillulumination to determine the minimum inhibiting concentration (MIC in μg/ml) and the results are reported in the following Tables.

[2] = tested on: Klebsiella pneumoniae Exp. 52 145
Method: as §1

[3] = tested on: Klebsiella pneumoniae 2 536 Resistant Gentamycine
Method: as §1

[4] = tested on: Escherichia Coli Resistant Tetracycline ATCC 11 303
Method: as §1

[5] = tested on: Streptococcus pyogenes A 561
Method: as §1

[6] = tested on: Staphylococcus aureus UC 1 128 Pen-resistant
Method: as §1

[7] = tested on: Escherichia Coli Resistant Gentamycine, Tobramycine R 55 123 D
Method: as §1

[8] = tested on: Escherichia Coli Exp. TO26 B6
Method: as §1

[9] = tested on: Bacillus subtilis ATCC 6 633
Method: as §1

Providencia Du 48 = tested on: Providencia Du 48
Method: as §1

[10] = tested on: Escherichia Coli sensitive Tetracycline ATCC 9 637
Method: as §1

[11] = tested on: Serratia Resistant Gentamycine 2 532
Method: as §1

[12] = tested on: Salmonella typhimurium 420; settings: Salmonella enterica
Method: as §1

[13] = tested on: Staphylococcus aureus ATCC 6 538 Pen Sensitive
Method: as §1

[14] = tested on: Staphylococcus aureus exp.n°54 146
Method: as §1

[15] = tested on: Streptococcus faecalis 5 432; settings: Enterococcus faecalis, 5432, 24 h
Method: as §1

Compound | MIC ([1]; 24 h) | MIC ([1]; 48 h) | MIC ([2]; EXP.52145, 24 h, read-out: MIC) | MIC ([2]; EXP.52145, 48 h, read-out: MIC) | MIC ([3]; 24 h) | MIC ([4]; ATCC11, 24 h) | MIC ([4]; ATCC11, 48 h) | MIC ([5]; A561, 24 h) | MIC ([5]; A561, 48 h) | MIC ([6]; UC1, 24 h) | MIC ([6]; UC1, 48 h) | MIC ([7]; 24 h) | MIC ([7]; 48 h) | MIC ([9]; ATCC6, 24 h) | MIC ([9]; ATCC6, 48 h) | MIC ([10]; ATCC9, 48 h) | MIC ([13]; ATCC6, 24 h) | MIC ([13]; ATCC6, 48 h) | MIC ([14]; 24 h) | MIC ([14]; 48 h) | further results
CC(=O)OCC1=C(C(=O)O)N2C(=O)C(NC(=O)/C(=N\OCCSC#N)c3csc(N)n3)C2SC1 (stereo not drawn) [Example 7, Syn isomer of 3-acetoxymethyl-7-[2-(2-amino-4-thiazolyl)-2-(2-thiocyanatoethoxyimino)-acetamido]-ceph-3-eme-4-carboxylic acid] | 0.2 µg/mL (≈ 0.38 µM) | 0.5 µg/mL (≈ 0.95 µM) | 0.5 µg/mL (≈ 0.95 µM) | 0.5 µg/mL (≈ 0.95 µM) | 5 µg/mL (≈ 9.5 µM) | 0.2 µg/mL (≈ 0.38 µM) | 0.2 µg/mL (≈ 0.38 µM) | 0.02 µg/mL (≈ 0.038 µM) | 0.02 µg/mL (≈ 0.038 µM) | 1 µg/mL (≈ 1.9 µM) | 1 µg/mL (≈ 1.9 µM) | 1 µg/mL (≈ 1.9 µM) | 1 µg/mL (≈ 1.9 µM) | 1 µg/mL (≈ 1.9 µM) | 2 µg/mL (≈ 3.8 µM) | 5 µg/mL (≈ 9.5 µM) | 1 µg/mL (≈ 1.9 µM) | 1 µg/mL (≈ 1.9 µM) | 1 µg/mL (≈ 1.9 µM) | 2 µg/mL (≈ 3.8 µM) | MIC ([3]; 48 h): 5 µg/mL (≈ 9.5 µM); MIC ([8]; 24 h): 2 µg/mL (≈ 3.8 µM); MIC ([8]; 48 h): 2 µg/mL (≈ 3.8 µM); MIC (Providencia Du 48; DU48, 24 h, read-out: MIC): 10 µg/mL (≈ 19 µM); MIC (Providencia Du 48; DU48, 48 h, read-out: MIC): 10 µg/mL (≈ 19 µM); MIC ([10]; ATCC9, 24 h): 5 µg/mL (≈ 9.5 µM); MIC ([11]; 24 h): 2 µg/mL (≈ 3.8 µM); MIC ([11]; 48 h): 3 µg/mL (≈ 5.7 µM); MIC ([12]; 24 h): 1 µg/mL (≈ 1.9 µM); MIC ([12]; 48 h): 3 µg/mL (≈ 5.7 µM)
CC(=O)OCC1=C(C(=O)O)N2C(=O)C(NC(=O)/C(=N\OCCSC(=N)NN)c3csc(N)n3)C2SC1 (stereo not drawn) [Example 8, Internal salt of syn isomer of 3-acetoxymethyl-7-[2-(2-amino-4-thiazolyl)-2-(2-iminohydrazinomethylthioethoxyimino)acetamido]-ceph-3-eme-4-carboxylic acid] | 0.2 µg/mL | 0.2 µg/mL |  |  | 5 µg/mL | 0.5 µg/mL | 0.5 µg/mL | 0.02 µg/mL | 0.05 µg/mL | 2 µg/mL | 2 µg/mL | 1 µg/mL | 1 µg/mL | 1 µg/mL | 3 µg/mL | 2 µg/mL | 1 µg/mL | 2 µg/mL | 1 µg/mL | 2 µg/mL | MIC ([2]; EXP.52145, 24 h): 1 µg/mL; MIC ([2]; EXP.52145, 48 h): 1 µg/mL; MIC ([3]; 48 h, read-out: MIC): 10 µg/mL; MIC ([8]; 24 h): 1 µg/mL; MIC ([8]; 48 h): 1 µg/mL; MIC ([10]; ATCC9, 24 h): 2 µg/mL; MIC ([11]; 24 h): 1 µg/mL; MIC ([11]; 48 h): 2 µg/mL; MIC ([12]; 24 h): 1 µg/mL; MIC ([12]; 48 h): 2 µg/mL
CC(=O)OCC1=C(C(=O)O)N2C(=O)C(NC(=O)/C(=N\OC(F)F)c3csc(N)n3)C2SC1 (stereo not drawn) [Example 9, Syn isomer of 3-acetoxymethyl-7-[2-(2-amino-4-thiazolyl)-2-difluoromethoxyimino-acetamido]-ceph-3-eme-4-carboxylic acid] | 0.05 µg/mL (≈ 0.102 µM) | 0.05 µg/mL (≈ 0.102 µM) | 0.05 µg/mL (≈ 0.102 µM) | 0.05 µg/mL (≈ 0.102 µM) |  | 0.05 µg/mL (≈ 0.102 µM) | 0.1 µg/mL (≈ 0.203 µM) | 0.05 µg/mL (≈ 0.102 µM) | 0.05 µg/mL (≈ 0.102 µM) | 1 µg/mL (≈ 2.03 µM) | 2 µg/mL (≈ 4.07 µM) |  |  | 1 µg/mL (≈ 2.03 µM) | 5 µg/mL (≈ 10.2 µM) | 1 µg/mL (≈ 2.03 µM) | 1 µg/mL (≈ 2.03 µM) | 1 µg/mL (≈ 2.03 µM) | 1 µg/mL (≈ 2.03 µM) | 2 µg/mL (≈ 4.07 µM) | MIC ([3]; 24 h, read-out: MIC): 0.5 µg/mL (≈ 1.02 µM); MIC ([3]; 48 h, read-out: MIC): 0.5 µg/mL (≈ 1.02 µM); MIC ([7]; 24 h, read-out: MIC): 0.2 µg/mL (≈ 0.407 µM); MIC ([7]; 48 h, read-out: MIC): 0.2 µg/mL (≈ 0.407 µM); MIC (Providencia Du 48; DU48, 24 h): 2 µg/mL (≈ 4.07 µM); MIC (Providencia Du 48; DU48, 48 h): 2 µg/mL (≈ 4.07 µM); MIC ([10]; ATCC9, 24 h, read-out: MIC): 0.5 µg/mL (≈ 1.02 µM); MIC ([11]; 24 h, read-out: MIC): 0.5 µg/mL (≈ 1.02 µM); MIC ([11]; 48 h, read-out: MIC): 0.5 µg/mL (≈ 1.02 µM); MIC [15]: 5 µg/mL (≈ 10.2 µM); MIC ([12]; 24 h, read-out: MIC): 0.5 µg/mL (≈ 1.02 µM); MIC ([12]; 48 h, read-out: MIC): 0.5 µg/mL (≈ 1.02 µM)
